In brackets after ≈: the same amount, converted by molar mass. Read-outs that look alike come from different tables or passages of the source. Each block holds one molecule with its values, some of them ahead of it.
Experiments:
NFκB = test: NFκB-INHIBITION TEST (NF-κB gene reporter, TNFα-stimulated FB293 cells); format: cell-based, human; conditions: for NF-κB Gene Reporter Activation (Luminescence, L): 24 h; for NF-κB inhibition (in words): summary of Table 1; for NF-KB Activity (10 ug/ml): Tables 3a and 3b
Protocol: As used herein, “NFκB-inhibitor” means a compound that inhibits the cell transcription factor nuclear kappa-B (NFκB). […] The compound need not provide the recited Percent NFκB Inhibition at all concentrations from 1 microgram per milliliter to 100 micrograms per milliliter, but provides the recited Percent NFκB Inhibition at least one concentration in this range.
The NFκB-INHIBITION TEST is conducted in the following manner. FB293 cells, a stable transfected human epithelial cell line containing the gene reporter for NF-κB are used. They may be obtained from, e.g., Panomics (Fremont, Calif.). FB293 are plated at a density of 5×10^4 cells/mL in a suitable medium, e.g., Dulbecco's modified Eagle's medium (DMEM) supplemented with 10% fetal bovine serum (Invitrogen, San Diego, Calif.). The FB293 cells are stimulated with 100 ng/mL of Tumor Necrosis Factor-α (TNFα, available from Sigma-Aldrich of St Louis, Mo.) in the presence of the test sample. Separately, a control sample is tested wherein no test sample is applied. Following a 24-hour incubation at 37° C. with 5% CO2, cells are lysed with 40 μl of reporter lysis buffer (Promega, Madison, Wis.). A 20-μl aliquot of the lysate is assayed using a luciferase assay kit (Promega) and counted for 10 s in a Lmax luminometer (Molecular Devices, Sunnyvale, Calif.) with the data represented as the relative light unit/second. Percent NFκB Inhibition of the test sample is calculated as: NFκB Inhibition=[1−(Lsample/Lcontrol)]*100 where Lsample is the luminescence of the sample and Lcontrol is the luminescence of the control.
The NFκB-INHIBITION TEST described above was performed on test samples of Bay 11-7082 (Sigma-Aldrich, St. Louis, Mo.), Tetrahydrocurcuminoids CG (Sabinsa Corporation, Piscataway, N.J.), as well as various concentrations of 4-hexylresorcinol.
The NFκB-INHIBITION TEST described above was performed on a series of substituted resorcinols each having a concentration of 10 μg/ml.

IL-1α = IL-1α ASSAY (IL-1α cytokine release in KB cells); format: cell-based, human; conditions: for Increase in IL-1α over untreated control (normalized): normalized to 4-hexylresorcinol 20 μg/mL
Protocol: An IL-1α ASSAY was performed on a plurality of agents to investigate the release of the pro-inflammatory mediator, IL-1α cytokine, in human epithelial cells.
(§1) The IL-1α ASSAY was conducted as follows. KB cells were obtained from ATCC (ATCC#CCL-17, Manassas, Va.) and were plated in 96-well tissue culture treated plates at a density of 5000 cells/well in Dulbecco's modified Eagle's medium (DMEM) supplemented with 10% fetal bovine serum (Invitrogen Corp., San Diego, Calif.). After 48 hours, cells were treated with the agents described below at indicated concentrations for 24 hours, following which supernatants were collected and analyzed for IL-1α cytokine release using commercially available kits (Millipore Corp., Billerica, Mass.).
Further IL-1α ASSAYS as described in Example 5 were performed. For ease of comparison, reported increases in IL-1α for 4-hexylresorcinol, phloretin, and combinations thereof were normalized to 4-hexylresorcinol (20 μg/mL, Comparative Example 2). Reported increases in IL-1α for tetrahydrocurcuminoids, feverfew, and combinations thereof were normalized to tetrahydrocurcuminoids (20 μg/mL, Comparative Example 3).
Further IL-1α ASSAYS as described in Example 5 were performed. For ease of comparison, reported increases in IL-1α were normalized to 4-hexylresorcinol (20 μg/mL, Comparative Example 2).

IL-8 = IL-8 ASSAY (IL-8 cytokine release in KB cells); format: cell-based, human
Protocol: as §1
An IL-8 ASSAY was performed on a series of compositions using the method described in Example 5, except that the cytokine analyzed for was IL-8. Percent reduction in IL-8 was calculated for each sample. For samples containing a combination of an NF-κB inhibitor and an anti-inflammatory compound, the percent reduction in IL-8 relative to the percent reduction in IL-8 for the corresponding dose of anti-inflammatory compound is reported.

Interleukin-2 = test: ANTI-INFLAMMATORY ASSAY (cytokine production by PHA-stimulated human lymphocytes); format: cell-based; conditions: PHA 10 μg/mL stimulated human leukocytes, 48 h
Protocol: The ANTI-INFLAMMATORY ASSAY assesses the ability of an agent to reduce the production of cytokines by human lymphocytes stimulated with the T-cell receptor (TCR) activating agent phytohaemagglutinin (PHA), and is conducted in the following manner. Human leukocytes are collected from a healthy adult […] via leukopheresis, and adjusted to a density of 1×10^6 cells/mL in serum free lymphocyte growth medium (ExVivo-15, Biowhittaker, Walkersville, Md.). PBLs are stimulated with 10 μg/mL PHA in the presence or absence of test samples following published methods (Hamamoto Y., et al. Exp Dermatol 2:231-235, 1993). Following a 48-hour incubation at 37° C. with 5% CO2, the supernatant is removed and evaluated for cytokine content using commercially available multiplex cytokine detection kit.

[1] = Homo sapiens, 10 μg/ml, series of substituted resorcinols, Table 2, read-out: Percent NF-κB Inhibition
[2] = Homo sapiens, read-out: Percent NF-κB Inhibition
[3] = Homo sapiens, read-out: Percent NFκB Inhibition

Molecule: COc1cccc(OC)c1 [1,3-Dimethoxybenzene, reference compound]
inhibition at 10 µg/mL (NFκB; [1]): -1.7%

Molecule: O=C(O)/C=C/c1ccc(O)cc1O [2,4-DIHYDROXYCINNAMIC Acid]
inhibition at 10 µg/mL (NFκB; [1]): -1.7%

Molecule: O=Nc1ccc(O)c(N=O)c1O [2,4-Dinitrosorcinol]
inhibition at 10 µg/mL (NFκB; [2]): 51.8%

Molecule: CCC(=O)c1ccc(O)cc1O [2′,4′-Dihydroxypropiophenone]
inhibition at 10 µg/mL (NFκB; [1]): -0.7%

Molecule: COc1cccc(O)c1 [3-Methoxyphenol, reference compound]
inhibition at 10 µg/mL (NFκB; [1]): 0%

Molecule: CCCCCC(=O)c1ccc(O)cc1O [4-Caproylresorcinol]
inhibition at 10 µg/mL (NFκB; [1]): 10.2%

Molecule: Oc1ccc(Cl)c(O)c1 [4-Chloroesorcinol]
inhibition at 10 µg/mL (NFκB; [1]): 51.6%

Molecule: CCCCCCCCCCCCc1ccc(O)cc1O [4-Dodecylresorcinol]
inhibition at 10 µg/mL (NFκB; [1]): 20.9%

Molecule: CCCCCCc1ccc(O)cc1O [4-Hexylresorcinol]
NF-κB Gene Reporter Activation (Luminescence, L) (NFκB; 1 μg/ml, TNFα 100 ng/ml stimulated FB293 cells): 106.1 ± 1.9
NF-κB Gene Reporter Activation (Luminescence, L) (NFκB; 5 μg/ml, TNFα 100 ng/ml stimulated FB293 cells): 55.1 ± 1.7
NF-κB Gene Reporter Activation (Luminescence, L) (NFκB; 10 μg/ml, TNFα 100 ng/ml stimulated FB293 cells): 29.3 ± 9.2
NF-κB Gene Reporter Activation (Luminescence, L) (NFκB; 50 μg/ml, TNFα 100 ng/ml stimulated FB293 cells, relative light unit/second per method): 9.3 ± 0.9
inhibition at 10 µg/mL (NFκB; [2]): 92.4%
inhibition at 1 µg/mL (NFκB; [3]): 1.9%
inhibition at 5 µg/mL (NFκB; [3]): 50.9%
inhibition at 10 µg/mL (NFκB; [3]): 72.9%
inhibition at 50 µg/mL (NFκB; [3]): 91.4%
NF-κB inhibition (in words) (NFκB): substantial reduction in NFκB activation
Mean of IL-1α Release (IL-1α; 20 μg/mL, 24 h, KB cells, untreated 0.72): 21.34 pg/mL
Increase in IL-1α over untreated control (normalized) (IL-1α; single agent 20 μg/mL, Table 6): 100
Increase in IL-1α over untreated control (normalized) (IL-1α; single agent 20 μg/mL, Table 7): 100
release of cytokine IL-1α (in words) (IL-1α; summary of Table 5): can increase the release of cytokine IL-1α
Mean of IL-8 Release (IL-8; single agent 10 μg/mL, untreated 84.46, Table 9): 73.23 pg/mL
Mean of IL-8 Release (IL-8; single agent 20 μg/mL, untreated 46.05, Table 8): 14.58 pg/mL
Mean of IL-8 Release (IL-8; single agent 20 μg/mL, untreated 84.46, Table 9): 27.05 pg/mL

Molecule: CCCCCCCCc1ccc(O)cc1O [4-Octylresorcinol]
inhibition at 10 µg/mL (NFκB; [1]): 99.5%

Molecule: Cc1ccc(S(=O)(=O)/C=C/C#N)cc1 [Bay 11-7082, (E)-3-(4-methylphenylsulfonyl)-2-propenenitrile, reference compound]
NF-κB Gene Reporter Activation (Luminescence, L) (NFκB; 25 uM, FB293 cells): 11.3 ± 5.6
inhibition at 25 µM (NFκB; Homo sapiens, 25 uM, Table 1, read-out: Percent NFκB Inhibition): 89.5%
NF-κB inhibition (in words) (NFκB): strong NF-κB inhibition

Molecule: CCCCCCCCCCCC1c2cc(c(O)cc2O)C(CCCCCCCCCCC)c2cc(c(O)cc2O)C(CCCCCCCCCCC)c2cc(c(O)cc2O)C(CCCCCCCCCCC)c2cc1c(O)cc2O (stereo not shown) [C-Undecylcalix[4]-resorcinarene]
Percent NF-κB Inhibition (NFκB; 10 μg/ml, series of substituted resorcinols, Table 2): 4.87%

Molecule: C=CC(C)(C)c1cc(/C=C/C(=O)c2ccc(O)cc2)c(OC)cc1O [Licochalcone]
NF-KB Activity (10 ug/ml) (NFκB): 0%
Anti-Inflammatory Activity (IC50 ug/ml) (Interleukin-2): 54.1 µg/mL

Molecule: Oc1ccc(CCc2ccccc2)c(O)c1 [Phenethylresorinol]
inhibition at 10 µg/mL (NFκB; [1]): 31.8%

IC50 (Interleukin-2; Leukocyte, read-out: Anti-Inflammatory Activity (IC50 ug/ml)): 19.9 µg/mL (≈ 72.6 µM)
Molecule: O=C(CCc1ccc(O)cc1)c1c(O)cc(O)cc1O [Phloretin]
NF-KB Activity (10 ug/ml) (NFκB): 0%
Increase in IL-1α over untreated control (normalized) (IL-1α; single agent 10 μg/mL, Table 6): 3.82
Increase in IL-1α over untreated control (normalized) (IL-1α; single agent 50 μg/mL, Table 6): 2.39
Increase in IL-1α over untreated control (normalized) (IL-1α; single agent 100 μg/mL, Table 6): 3.34

Molecule: CC1CCCC(=O)CCCCCc2cc(O)cc(O)c2C(=O)O1 (stereo not shown) [Zearalanone]
inhibition at 10 µg/mL (NFκB; [2]): 51%

Molecule: CC1CCCC(O)CCCCCc2cc(O)cc(O)c2C(=O)O1 (stereo not drawn) [β-Zearalanol]
inhibition at 10 µg/mL (NFκB; [2]): 76.6%

Molecule: C[C@H]1CCC[C@@H](O)CCC/C=C/c2cc(O)cc(O)c2C(=O)O1 [β-Zearalenol]
inhibition at 10 µg/mL (NFκB; [2]): 87.1%

Anti-Inflammatory Activity (IC50 ug/ml) (Interleukin-2): 77.3 µg/mL
Molecule: Madecassoside [reference compound]
NF-KB Activity (10 ug/ml) (NFκB): 0%
Increase in IL-1α over untreated control (normalized) (IL-1α; single agent 10 μg/mL, Table 7): 43.02
Increase in IL-1α over untreated control (normalized) (IL-1α; single agent 50 μg/mL, Table 7): 41.59
Increase in IL-1α over untreated control (normalized) (IL-1α; single agent 100 μg/mL, Table 7): 44.24
